# pIC50: −log10 of the molar value. Like-named read-outs stand apart in the source and are kept apart here.
# Legend:
# [1] = system: PMA-induced aggregation of platelet rich plasma (phorbol ester receptor); test: Phorbol ester, platelet aggregation (461500); assay type: cell-based, rabbit; conditions: 30 μM, platelet rich plasma, rabbit
# Method: (§1) Test compounds referred to above were evaluated for inhibition of platelet aggregation induced by adenosine diphosphate, arachidonic acid, phorbol ester and Platelet Activating Factor (PAF) at […]. The following methods were employed in this analysis, and reference compounds for the respective assays are indicated in Appendix 1:
# Venous blood obtained from male or female New Zealand derived albino rabbits weighing 2.5-3 kg is mixed with one-tenth volume of trisodium citrate (0.13 M) and centrifuged at room temperature for 10 min at 220 g. Test substance (30 μM)-induced aggregation of the supernatant platelet rich plasma by 50 percent or more (≧50%) within 5 min, relative to control phorbol myristate acetate (PMA, 0.5 μM) response at 37° C. as measured by an optical aggregometer, indicates possible phorbol ester receptor agonist activity.
# At a test substance concentration where no significant agonist activity is seen, ability to reduce the PMA (0.5 μM)-induced maximum non-reversible aggregation response by 50 percent or more (>50%) indicates phorbol ester receptor antagonist activity.
# [2] = target: T1, thromboxane A2 synthase (Oryctolagus cuniculus, UniProt G1TAZ9); test: Thromboxane A2 synthase inhibition, TXB2 radioimmunoassay (194000); assay type: biochemical, rabbit
# T1 sequence (G1TAZ9 1-530): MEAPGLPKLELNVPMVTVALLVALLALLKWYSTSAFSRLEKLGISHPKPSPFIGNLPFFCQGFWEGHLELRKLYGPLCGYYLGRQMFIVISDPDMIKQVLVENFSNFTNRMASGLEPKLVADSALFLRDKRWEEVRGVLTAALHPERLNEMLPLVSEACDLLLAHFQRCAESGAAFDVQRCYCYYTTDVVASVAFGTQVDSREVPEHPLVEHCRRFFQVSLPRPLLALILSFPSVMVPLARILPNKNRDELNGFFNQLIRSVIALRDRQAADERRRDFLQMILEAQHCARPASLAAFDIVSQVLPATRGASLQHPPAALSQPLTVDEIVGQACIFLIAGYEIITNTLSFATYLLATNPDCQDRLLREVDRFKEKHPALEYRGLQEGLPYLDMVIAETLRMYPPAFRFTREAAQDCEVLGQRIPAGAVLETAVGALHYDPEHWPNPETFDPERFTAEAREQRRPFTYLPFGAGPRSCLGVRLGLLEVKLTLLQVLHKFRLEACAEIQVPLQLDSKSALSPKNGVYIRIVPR
# Method: Test compounds (IG-1 through IG-11) were evaluated for their ability to inhibit cyclooxygenase COX-1, cyclooxygenase COX-2, and thromboxane synthase. In these assays, in addition to the designations set forth above, IG-05 refers to resorcinol and IG-06 refers to orcinol.
# To assess Thromboxane A2 synthase, thromboxane A2 synthase isolated from a microsomal fraction of rabbit platelets by conventional centrifugation was used. The test compound and/or vehicle was incubated with 1:200 dilution of thromboxane A2 synthase and 5 ng prostaglandin G2 as substrate in Tris buffer pH 7.5 for 30 minutes at 37° C. The thromboxane A2 formed is immediately converted to thromboxane B2, which was quantitated by a radioimmunoassay. Compounds are screened at 100 μM.
# [3] = system: arachidonic acid-induced aggregation of platelet rich plasma; test: Arachidonic acid, platelet aggregation (412510); assay type: cell-based, rabbit; conditions: 30 μM, platelet rich plasma, rabbit
# Method: as §1
# Venous blood obtained from male or female New Zealand derived albino rabbits weighting 2.5-3 kg was mixed with one-tenth volume of trisodeium citrate (0.13M) and centrifuged at room temperature for 10 min at 220 g. Test substance (30 μM)-induced aggregation of the supernatant platelet rich plasma by 50 percent or more (≧50%) within 5 min, relative to 100 μM arachidonic acid response at 37° C. as measured by an optical aggregometer indicates possible agonist activity.
# At a test substance concentration where no significant agonist activity is seen, ability to reduce the arachidonic acid-induced maximum non-reversible aggregation response by 50 percent or more (>50%) was indicative of antagonist activity.
# [4] = target: T2, cyclooxygenase COX-1 (Homo sapiens, UniProt P23219); test: Cyclooxygenase COX-1 inhibition in human platelets, PGE2 EIA (116010); assay type: cell-based; conditions: screened at 10 μM
# T2 construct: host or cells: human platelets
# T2 sequence (P23219 24-599): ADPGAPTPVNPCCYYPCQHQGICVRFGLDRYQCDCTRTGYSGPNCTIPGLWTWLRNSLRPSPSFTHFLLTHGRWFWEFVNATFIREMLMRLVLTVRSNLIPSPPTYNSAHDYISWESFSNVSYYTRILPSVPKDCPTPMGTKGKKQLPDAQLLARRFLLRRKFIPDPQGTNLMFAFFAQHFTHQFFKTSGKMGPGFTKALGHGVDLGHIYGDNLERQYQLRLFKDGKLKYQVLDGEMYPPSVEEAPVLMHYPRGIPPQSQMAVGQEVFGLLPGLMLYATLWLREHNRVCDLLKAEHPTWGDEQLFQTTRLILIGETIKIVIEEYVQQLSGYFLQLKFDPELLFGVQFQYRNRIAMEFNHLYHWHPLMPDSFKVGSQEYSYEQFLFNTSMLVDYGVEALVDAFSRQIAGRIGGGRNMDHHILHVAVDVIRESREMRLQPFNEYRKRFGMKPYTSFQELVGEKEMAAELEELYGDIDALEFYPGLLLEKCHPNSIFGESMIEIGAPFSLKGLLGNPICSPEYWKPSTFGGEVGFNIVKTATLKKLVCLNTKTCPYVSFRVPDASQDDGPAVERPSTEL
# Method: (§2) In these assays, in addition to the designations set forth above, IG-05 refers to resorcinol and IG-06 refers to orcinol.
# To assess COX-1 inhibition, test compound and/or vehicle was incubated with human platelets (5×10^7/well) for 15 minutes at5 37° C. Calcium ionophore A23187 (10 μM) was added to induce the arachidonic acid cascade. After another 15 minutes incubation at 37° C., PGE2 levels in the supernatant were quantiated using the Amersham EIA kit. Compounds were screened at 10 μM.
# [5] = target: T3, cyclooxygenase-2 (human recombinant) (Homo sapiens, UniProt P35354); test: Cyclooxygenase COX-2 inhibition, recombinant enzyme, PGE2 EIA (118010); assay type: biochemical; conditions: screened at 10 μM
# T3 construct: 118010; host or cells: Spodoptera frugiperda (insect cells)
# T3 sequence (P35354 18-604): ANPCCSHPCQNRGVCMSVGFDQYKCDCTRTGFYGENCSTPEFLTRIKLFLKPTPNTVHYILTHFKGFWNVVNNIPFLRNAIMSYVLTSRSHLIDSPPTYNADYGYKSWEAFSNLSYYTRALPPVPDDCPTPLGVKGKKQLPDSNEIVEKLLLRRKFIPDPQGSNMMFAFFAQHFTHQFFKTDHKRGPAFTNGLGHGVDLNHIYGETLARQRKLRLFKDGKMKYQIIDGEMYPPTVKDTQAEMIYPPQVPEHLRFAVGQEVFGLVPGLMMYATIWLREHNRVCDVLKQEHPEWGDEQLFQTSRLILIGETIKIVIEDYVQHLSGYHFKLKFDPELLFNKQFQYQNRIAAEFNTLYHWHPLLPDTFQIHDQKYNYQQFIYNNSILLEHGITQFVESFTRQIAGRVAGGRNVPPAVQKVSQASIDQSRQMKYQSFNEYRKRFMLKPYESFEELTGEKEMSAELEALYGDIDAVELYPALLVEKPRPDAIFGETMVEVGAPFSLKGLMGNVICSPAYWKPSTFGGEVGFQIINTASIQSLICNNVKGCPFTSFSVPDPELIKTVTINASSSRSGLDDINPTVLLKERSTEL
# Method: as §2
# Following centrifugation, substrate conversion to PGE2 was measured by an Amersham EIA kit. Compounds are screened at 10 μM.
# [6] = system: adenosine diphosphate-induced aggregation of platelet rich plasma (ADP receptor); test: Adenosine diphosphate, platelet aggregation (404010); assay type: cell-based, rabbit; conditions: 30 μM, platelet rich plasma, rabbit
# Method: as §1
# Venous blood obtained from male or female New Zealand derived albino rabbits weighing 2.5-3 kg was mixed with one-tenth volume of trisodium citrate (0.13 M) and centrifuged at room temperature for 10 min at 220 g. Test substance (30 EM)-induced aggregation of the supernatant platelet rich plasma by 50 percent or more (>50%) more relative to 1.2 μM adenosine diphosphate control response at 37° C. as mearsured by an optical aggregometer, indicates possible ADP receptor agonist activity.
# At a test substance concentration where no significant agonist activity is seen, ability to reduce the adenosine diphosphate-induced maximum non-reversible aggregation response by 50 percent or more (≧50%) was indicative of ADP receptor antagonist activity.
# [7] = system: PAF-acether-induced aggregation of platelet rich plasma (PAF receptor); test: PAF, platelet aggregation (463010); assay type: cell-based, rabbit; conditions: 30 μM, platelet rich plasma, rabbit
# Method: as §1
# Venous blood obtained from male or female New Zealand derived albino rabbits weighing 2.5-3 kg is mixed with one-tenth volume of trisodium citrate (0.13 M) and centrifuged at room temperture for 10 min at 220 g. Test Substance (30 μM)-induced aggregation of the supernatant platelet rich plasma by 50 percent or more (≧50%) within 5 min, relative to control 5 nM platelet activating factor-acether (PAF-acether) response at 37[…] as measured by an optical aggregometer, indicates possible PAF receptor agonist activity.
# At a test substance concentration where no significant agonist activity is seen, ability to reduce the PAF-acether-induced maximum non-reversible aggregation response by 50 percent or more (≧50%) indicates PAF receptor antagonist activity.
# [8] = target: T1, thromboxane A2 synthase; conditions: reference compound, historical; read-out: Historical IC50, Thromboxane Synthetase; cited from earlier work
SMILES,"ANT. (antagonist response), phorbol ester platelet aggregation [1] [%]","AG. (agonist response), phorbol ester platelet aggregation ([1]; relative to PMA 0.5 μM) [%]",melting point [°C],Thromboxane synthase inhibition (in words) ([2]; screened at 100 μM),"ANT. (antagonist response), arachidonic acid platelet aggregation [3] [%]","AG. (agonist response), arachidonic acid platelet aggregation ([3]; relative to 100 μM arachidonic acid) [%]",COX-1 inhibition (in words) [4],COX-2 inhibition (in words) [5],"ANT. (antagonist response), ADP platelet aggregation [6] [%]","AG. (agonist response), ADP platelet aggregation ([6]; relative to […] ADP) [%]","ANT. (antagonist response), PAF platelet aggregation [7] [%]","AG. (agonist response), PAF platelet aggregation ([7]; relative to 5 nM PAF-acether) [%]",pIC50 [8],"pIC50 ([2]; reference compound, concurrent, read-out: Concurrent IC50, Thromboxane Synthetase)"
"Cc1c(O)cc(C(C)(C)CCCC(C)C)cc1O [IG-10, 2-Methyl-5-(1,1,5-trimethylhexyl)resorcinol]",9,0,145 to 147,significantly inhibit thromboxane synthase,100,0,potent inhibitors of COX-1,not COX-2,17,0,6,0,–,–
"O=C(O)c1ccc(OCCn2ccnc2)cc1 [Dazoxiben, reference compound]",–,–,–,–,–,–,–,–,–,–,–,–,7.66,7.21

# — patent US20040138315A1 (priority 2000, published 2004)
